Consider 23 compounds from patent publication US10669238B2, “Irreversible bruton's tyrosine kinase inhibitor” (HEFEI INSTITUTES OF PHYSICAL SCIENCE, CHINESE ACADEMY OF …, priority 2016, dated 2020).

SMILES strings stand for the structures.

BTK protein kinase, sequence (Q06187 whole entry): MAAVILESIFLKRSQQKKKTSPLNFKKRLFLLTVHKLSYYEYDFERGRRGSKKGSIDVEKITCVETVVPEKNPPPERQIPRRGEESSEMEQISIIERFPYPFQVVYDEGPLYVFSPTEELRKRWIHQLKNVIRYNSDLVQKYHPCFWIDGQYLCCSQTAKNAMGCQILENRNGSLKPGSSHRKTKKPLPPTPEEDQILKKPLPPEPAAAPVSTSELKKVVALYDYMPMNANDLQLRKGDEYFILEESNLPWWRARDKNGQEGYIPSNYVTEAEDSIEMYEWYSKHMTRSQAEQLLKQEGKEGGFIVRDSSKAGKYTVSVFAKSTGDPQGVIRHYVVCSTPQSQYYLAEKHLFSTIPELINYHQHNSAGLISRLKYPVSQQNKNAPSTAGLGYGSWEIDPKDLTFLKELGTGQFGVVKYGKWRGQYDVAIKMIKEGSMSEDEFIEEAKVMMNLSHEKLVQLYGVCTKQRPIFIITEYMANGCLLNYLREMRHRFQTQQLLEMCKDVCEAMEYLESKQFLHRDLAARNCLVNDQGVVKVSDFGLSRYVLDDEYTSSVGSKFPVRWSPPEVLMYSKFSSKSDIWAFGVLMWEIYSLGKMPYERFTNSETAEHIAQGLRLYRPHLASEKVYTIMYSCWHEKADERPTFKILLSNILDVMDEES

The assay has as its target BTK protein kinase (Homo sapiens, UniProt Q06187). Briefly: In vitro enzymatic activity against BTK (ADP-Glo). As to conditions: compound with BTK 4 hours at room temperature; ATP 10 μM, 37° C. 1 hour; values in nM. In kind it is biochemical. On the procedure:
In vitro enzymatic activity of the compounds against BTK was determined in a experimental assay of in vitro enzymatic activity using […] kit (purchased from Progema, USA).
9 μL of BTK protein kinase (at a concentration of 1.5 ng/μL) was used to react with compounds (1 μL) shown in the following table that were diluted three times in gradient at room temperature for 4 hours (the final concentration of the compound being 10 μM, 3 μM, 1 μM, 0.3 μM, 0.1 μM, 0.03 μM, 0.01 μM, 0.003 μM);
2 μL of ATP and 3 μL of the substrate Poly(4:1 Glu, Tyr)Peptide (Promega, USA) (the final concentrations being 10 μM and 0.2 μg/μL, respectively) were added to allow reaction at 37° C. for 1 hour;
5 μL of BTK kinase solution after reaction was taken and added into 5 μL of ADP-Glo™ (Promega, USA) reagent to allow reaction at room temperature for 40 mins so as to terminate the kinase reaction and exhaust the remaining ATP;
10 μL kinase detecting reagent was added to convert ADP to ATP, and newly synthesized ATP was detected using coupled luciferase/[…] reaction, then the IC50 values were calculated by using a plotting method based on the Envision reading.
On the technique in general: In ADP-Glo the light output rises with the ADP produced.
The IC50 is the midpoint of a concentration-inhibition curve. Read a high IC50 as a need for much substance. Turning to `CCC(=O)Nc1cc(Nc2cc(-c3cccc(NC(=O)c4cc5c(s4)CCCC5)c3C)cn(C)c2=O)ccc1C(=O)N1CCOCC1` [Compound 67, N-(3-(5-((3-propanamide-4-(morpholin-4-carbonyl)phenyl)amino)-1-methyl-6-oxo-1,6-dihydropyridin-3-yl)-2-methylphenyl)-4,5,6,7-tetrahydrobenzo[b]thiophene-2-carboxamide], the IC50 turned out to be 25 nM.

Compound `C=CC(=O)Nc1cc(Nc2cc(-c3cccc(NC(=O)c4cc5c(s4)CCCC5)c3C)cn(C)c2=O)ccc1N1CCOCC1` [Compound 78, N-(3-(5-((3-acrylamide-4-morpholinophenyl)amino)-1-methyl-6-oxo-1,6-dihydropyridin-3-yl)-2-methylphenyl)4,5,6,7-tetrahydrobenzo[b]thiophene-2-carboxamide] gave an IC50 of 119 nM.

In turn, `C=CC(=O)Nc1cc(Nc2cc(-c3cccc(NC(=O)c4cc5c(s4)CCCC5)c3C)cn(C)c2=O)ccc1N1CCC(OC)CC1` [Compound 88, N-(3-(5-((3-acrylamide-4-(4-methoxypiperidin-1-yl)phenyl)amino)-1-methyl-6-oxo-1,6-dihydropyridin-3-yl)-2-methylphenyl)-4,5,6,7-tetrahydrobenzo[b]thiophene-2-carboxamide] showed a 50% inhibitory concentration (IC50) of 167 nM.

`C=CC(=O)Nc1cc(Nc2cc(-c3cccc(NC(=O)c4ccc(C)cc4)c3C)cn(C)c2=O)ccc1C(=O)N1CCOCC1` [Compound 9, N-(3-(5-((3-acrylamide-4-(morpholin-4-carbonyl)phenyl)amino)-1-methyl-6-oxo-1,6-dihydropyridin-3-)-2-methylphenyl)-4-(methyl)benzoylamide] had an IC50 of 88.9 nM.

`C=CC(=O)Nc1cc(Nc2cc(-c3cccc(NC(=O)c4ccc(N(C)C)cc4)c3C)cn(C)c2=O)ccc1C(=O)N1CCCC(O)C1` (centres unmarked) [Compound 55, N-(3-(5-((3-acrylamide-4-(3-hydroxypiperdin-1-carbonyl)phenyl)amino)-1-methyl-6-oxo-1,6-dihydropyridin-3-yl)-2-methylphenyl)-4-(dimethylamino)benzoylamide] registered an IC50 of 181 nM.

In the case of `C=CC(=O)Nc1cc(Nc2cc(-c3cccc(NC(=O)c4ccc(C(C)C)cc4)c3C)cn(C)c2=O)ccc1C(=O)N1CCOCC1` [Compound 64, N-(3-(5-((3-acrylamide-4-(morpholin-4-carbonyl)phenyl)amino)-1-methyl-6-oxo-1,6-dihydropyridin-3-yl)-2-methylphenyl)-4-isopropylbenzoylamide], the IC50 came out at 22 nM.

The compound `C=CC(=O)Nc1cc(Nc2cc(-c3cccc(NC(=O)c4cc5c(s4)CCCC5)c3C)cn(C)c2=O)ccc1N1CCN(C(C)=O)CC1` [Compound 79, N-(3-(5-((4-(4-acetylpiperazin-1-yl)-3-acrylamidephenyl)amino)-1-methyl-6-oxo-1,6-dihydropyridin-3-yl)-2-methylphenyl)-4,5,6,7-tetrahydrobenzo[b]thiophene-2-carboxamide] came in with an IC50 of 82 nM.

Compound `C=CC(=O)Nc1cc(Nc2cc(-c3cccc(NC(=O)c4ccc(N(C)C)cc4)c3C)cn(C)c2=O)ccc1C(=O)N1CCCCC1` [Compound 50, N-(3-(5-((3-acrylamide-4-(piperidin-1-carbonyl)phenyl)amino)-1-methyl-6-oxo-1,6-dihydropyridin-3-yl)-2-methylphenyl)-4-(dimethylamino)benzoylamide] returned an IC50 of 91 nM.

In turn, `C=CC(=O)Nc1cc(Nc2cc(-c3cccc(NC(=O)c4ccc(C(C)(C)C)cc4)c3C)cn(C)c2=O)ccc1C(=O)N1CCCC(O)C1` (centres unmarked) [Compound 47, N-(3-(5-((3-acrylamide-4-(3-hydroxypiperidin-1-carbonyl)phenyl)amino)-1-methyl-6-oxo-1,6-dihydropyridin-3-yl)-2-methylphenyl)-4-(tert-butyl)benzamide] returned an IC50 of 24 nM.

As to `C=CC(=O)Nc1cc(Nc2cc(-c3cccc(NC(=O)c4ccc(C)c(C(F)(F)F)c4)c3C)cn(C)c2=O)ccc1C(=O)N1CCOCC1` [Compound 63, N-(3-(5-((3-acrylamide-4-(morpholin-4-carbonyl)phenyl)amino)-1-methyl-6-oxo-1,6-dihydropyridin-3-yl)-2-methylphenyl)-4-methyl-3-(trifluoromethyl)benzoylamide], 800 nM corresponded to half-maximal inhibition (IC50).

`C=CC(=O)Nc1cc(Nc2cc(-c3cccc(NC(=O)c4ccc(N(C)C)cc4)c3C)cn(C)c2=O)ccc1N1CCOCC1` [Compound 73] came in with an IC50 of 24.9 nM.

`C=CC(=O)Nc1cc(Nc2cc(-c3cccc(NC(=O)c4ccc5c(c4)OCCO5)c3C)cn(C)c2=O)ccc1C(=O)N1CCOCC1` [Compound 44, N-(3-(5-((3-acrylamide-4-(morpholin-4-carbonyl)phenyl)amino)-1-methyl-6-oxo-1,6-dihydropyridin-3-yl)-2-methylphenyl)-2,3-dihydrobenzo[b][1,4]dioxin-6-carboxamide] gave an IC50 of 72 nM.

The compound `CCC(=O)Nc1cc(Nc2cc(-c3cccc(NC(=O)c4ccc(C(C)(C)C)cc4)c3C)cn(C)c2=O)ccc1C(=O)N(C)C` [Compound 30, 2-propanamide-4-((5-(3-(4-(tert-butyl)benzamide)-2-methylphenyl)-1-methyl-2-oxo-1,2-dihydropyridin-3-yl)amino)-N,N-dimethylbenzoylamide] came in with an IC50 of 339 nM.

Consider `C=CC(=O)Nc1cc(Nc2cc(-c3cccc(NC(=O)c4cc5ccccc5s4)c3C)cn(C)c2=O)ccc1N1CCN(C(C)=O)CC1` [Compound 92, N-(3-(5-((4-(4-acetylpiperazin-1-yl)-3-acrylamidephenyl)amino)-1-methyl-6-oxo-1,6-dihydropyridin-3-yl)-2-methylphenyl)benzo[b]thiophene-2-carboxamide], for which the IC50 was 71.7 nM.

As for `CCC(=O)Nc1cc(Nc2cc(-c3cccc(NC(=O)c4ccc(C(C)(C)C)cc4)c3C)cn(C)c2=O)ccc1C(=O)N1CCNCC1` [Compound 41, N-(3-(5-((3-propanamide-4-(piperazin-1-carbonyl)phenyl)amino)-1-methyl-6-oxo-1,6-dihydropyridin-3-yl)-2-methylphenyl)-4-(tert-butyl)benzamide], the half-maximal inhibitory concentration (IC50) amounted to 42 nM.

On to `C=CC(=O)Nc1cc(Nc2cc(-c3cccc(NC(=O)c4ccc5c(c4)OCO5)c3C)cn(C)c2=O)ccc1C(=O)N1CCOCC1` [Compound 18, N-(3-(5-((3-acrylamide-4-(morpholin-4-carbonyl)phenyl)amino)-1-methyl-6-oxo-1,6-dihydropyridin-3-yl)-2-methylphenyl)-benzo[d][1,3]dioxolanyl-5-carboxamide], for which the IC50 was determined as 187 nM.

Consider `C=CC(=O)Nc1cc(Nc2cc(-c3cccc(NC(=O)c4ccc(N(C)C)cc4)c3C)cn(C)c2=O)ccc1C(=O)N1CCC(OC)CC1` [Compound 52, N-(3-(5-((3-acrylamide-4-(4-methoxypiperidin-1-carbonyl)phenyl)amino)-1-methyl-6-oxo-1,6-dihydropyridin-3-yl)-2-methylphenyl)-4-(dimethylamino)benzoylamide], for which the IC50 was 586 nM.

Compound `CCC(=O)Nc1cc(Nc2cc(-c3cccc(NC(=O)c4ccc(C(C)(C)C)cc4)c3C)cn(C)c2=O)ccc1C(=O)N1CCN(C(=O)OC(C)(C)C)CC1` [Compound 39, tertbutyl 4-(2-propanamide-4-((5-(3-(4-(tert-butyl)benzamide)-2-methylphenyl)-1-methyl-2-oxo-1,2-dihydropyridin-3-yl)amino)benzoyl)piperazin-1-carboxylate] gave an IC50 of 503 nM. The IC50 values of the last two compounds are within 1.5-fold of each other.

Regarding `C=CC(=O)Nc1cc(Nc2cc(-c3cccc(NC(=O)c4ccc(N(C)C)cc4)c3C)cn(C)c2=O)ccc1C(=O)NCCOC` [Compound 53, 2-acrylamide-4-((5-(3-(4-(dimethylamino)benzoylamide)-2-methylphenyl)-1-methyl-2-oxo-1,2-dihydropyridin-3-yl)amino)-N-(2-methoxyethyl)benzoylamide], the midpoint of inhibition, the IC50, lay at 667 nM.

Turning to `C=CC(=O)Nc1cc(Nc2cc(-c3cccc(NC(=O)c4ccc(C5CC5)cc4)c3C)cn(C)c2=O)ccc1N1CCN(C)CC1` [Compound 72, N-(3-(5-((3-acrylamide-4-(4-methylpiperazin-1-yl)phenyl)amino)-1-methyl-6-oxo-1,6-dihydropyridin-3-yl)-2-methylphenyl)-4-cyclopropylbenzoylamide], the midpoint of inhibition, the IC50, lay at 180 nM.

For `C=CC(=O)Nc1cc(Nc2cc(-c3cccc(NC(=O)c4ccc(C(C)(C)C)cc4)c3C)cn(C)c2=O)ccc1C(=O)N1CCN(C)CC1` [Compound 3, N-(3-(5-((3-acrylamide-4-(4-methylpiperazin-1-carbonyl)phenyl)amino)-1-methyl-6-oxo-1,6-dihydropyridin-3-yl)-2-methylphenyl)-4-(tert-butyl)benzamide], inhibition was half-maximal at 144 nM (IC50).

For the compound `C=CC(=O)Nc1cc(Nc2cc(-c3cccc(NC(=O)c4cc5ccccc5s4)c3C)cn(C)c2=O)ccc1N(C)C` [Compound 93, N-(3-(5-((3-acrylamide-4-(dimethylamino)phenyl)amino)-1-methyl-6-oxo-1,6-dihydropyridin-3-yl)-2-methylphenyl)benzo[b]thiophene-2-carboxamide], inhibition was half-maximal at 15.4 nM (IC50).

As for `CCC(=O)Nc1cc(Nc2cc(-c3cccc(NC(=O)c4ccc(C(C)(C)C)cc4)c3C)cn(C)c2=O)ccc1C(=O)N1CCCC1` [Compound 33, N-(3-(5-((3-propanamide-4-(pyrrolidin-1-carbonyl)phenyl)amino)-1-methyl-6-oxo-1,6-dihydropyridin-3-yl)-2-methylphenyl)-4-(tert-butyl)benzamide], the midpoint of inhibition, the IC50, lay at 165 nM.
